What all share (experiment): relative viability (nuclei count vs DMSO), 5 days (fraction); higher = more cells survive
Compound in the assay “Temozolomide + OSI-027”: Cn1nnc2c(C(N)=O)ncn2c1=O [Temozolomide] + COc1cccc2cc(-c3nc([C@H]4CC[C@H](C(=O)O)CC4)n4ncnc(N)c34)[nH]c12 [OSI-027] (partner 0.5 µM)
In outline: (§1)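 Lung cancer cell lines were seeded in 1536-well plates and dosed by pin tool the next day, with either a single drug or a fixed anchor-drug dose combined with five library-drug doses (not always all listed) spaced in √10 steps. Five days later, one step fixed the cells and stained their nuclei (final 0.05% Triton X-100, 1% formaldehyde, 1 ug/ml Hoechst), and nuclei were counted on 4× images. Relative viability is the nuclei count in treated wells divided by the count in vehicle wells, and each value is the median of duplicate plates.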

Compound in the assay “AZD5582 + Luminespib”: C[C@@H](C(=O)N[C@@H](C1CCCCC1)C(=O)N2CCC[C@H]2C(=O)N[C@@H]3[C@@H](CC4=CC=CC=C34)OCC#CC#CCO[C@@H]5CC6=CC=CC=C6[C@@H]5NC(=O)[C@@H]7CCCN7C(=O)[C@H](C8CCCCC8)NC(=O)[C@H](C)NC)NC [AZD5582] + CCNC(=O)c1noc(-c2cc(C(C)C)c(O)cc2O)c1-c1ccc(CN2CCOCC2)cc1 [Luminespib] (partner 0.01 µM)
A digest of the protocol: as §1

Compound in the assay “AZD5582 + Pemetrexed”: C[C@@H](C(=O)N[C@@H](C1CCCCC1)C(=O)N2CCC[C@H]2C(=O)N[C@@H]3[C@@H](CC4=CC=CC=C34)OCC#CC#CCO[C@@H]5CC6=CC=CC=C6[C@@H]5NC(=O)[C@@H]7CCCN7C(=O)[C@H](C8CCCCC8)NC(=O)[C@H](C)NC)NC [AZD5582] + Nc1nc2[nH]cc(CCc3ccc(C(=O)N[C@@H](CCC(=O)O)C(=O)O)cc3)c2c(=O)[nH]1 [Pemetrexed] (partner 0.2 µM)
In outline:
as §1

Compound in the assay “AZD5582 + Crizotinib”: C[C@@H](C(=O)N[C@@H](C1CCCCC1)C(=O)N2CCC[C@H]2C(=O)N[C@@H]3[C@@H](CC4=CC=CC=C34)OCC#CC#CCO[C@@H]5CC6=CC=CC=C6[C@@H]5NC(=O)[C@@H]7CCCN7C(=O)[C@H](C8CCCCC8)NC(=O)[C@H](C)NC)NC [AZD5582] + C[C@@H](Oc1cc(-c2cnn(C3CCNCC3)c2)cnc1N)c1c(Cl)ccc(F)c1Cl [Crizotinib] (partner 1 µM)
A digest of the protocol: as §1

Turning to NCI-H596, the relative viability with Temozolomide + OSI-027 (first compound 0.2 µM) stood at 0.835; with Temozolomide + OSI-027 (first compound 0.6325 µM), 0.76; in the assay with Temozolomide + OSI-027 (first compound 2 µM), 0.692; in the assay with Temozolomide + OSI-027 (first compound 6.325 µM) it was 0.691; in the assay with Temozolomide + OSI-027 (first compound 20 µM) it was 0.835; with AZD5582 + Luminespib (first compound 0.01581 µM), 0.931. In addition, the relative viability came to 0.551 with AZD5582 + Luminespib (first compound 0.05 µM); 0.323 in the assay with AZD5582 + Pemetrexed (first compound 0.001581 µM); 0.448 with AZD5582 + Pemetrexed (first compound 0.01581 µM); 0.263 with AZD5582 + Pemetrexed (first compound 0.05 µM); 0.902 with AZD5582 + Crizotinib (first compound 0.001581 µM); 0.279 in the assay with AZD5582 + Crizotinib (first compound 0.005 µM). The relative viability with AZD5582 + Crizotinib (first compound 0.01581 µM) was determined as 1.03; with AZD5582 + Crizotinib (first compound 0.05 µM), 0.1.
On to NCI-H2405, for which the relative viability was determined as 0.569 with Temozolomide + OSI-027 (first compound 0.2 µM); 0.618 with Temozolomide + OSI-027 (first compound 0.6325 µM); 0.646 with Temozolomide + OSI-027 (first compound 2 µM); 0.619 with Temozolomide + OSI-027 (first compound 6.325 µM); 0.654 in the assay with Temozolomide + OSI-027 (first compound 20 µM); 0.892 with AZD5582 + Luminespib (first compound 0.001581 µM). The relative viability with AZD5582 + Luminespib (first compound 0.005 µM) turned out to be 0.924; with AZD5582 + Luminespib (first compound 0.01581 µM) it was 0.733; with AZD5582 + Luminespib (first compound 0.05 µM), 1.08; with AZD5582 + Pemetrexed (first compound 0.001581 µM), 1.05; in the assay with AZD5582 + Pemetrexed (first compound 0.005 µM), 1.13; with AZD5582 + Pemetrexed (first compound 0.01581 µM) it was 1.09. Also, the relative viability in the assay with AZD5582 + Pemetrexed (first compound 0.05 µM) stood at 1.12; with AZD5582 + Crizotinib (first compound 0.001581 µM), 0.785; with AZD5582 + Crizotinib (first compound 0.005 µM), 0.957; in the assay with AZD5582 + Crizotinib (first compound 0.01581 µM) it was 0.804; with AZD5582 + Crizotinib (first compound 0.05 µM), 0.9.
As to PC-3 [JPC-3], the relative viability with Temozolomide + OSI-027 (first compound 0.2 µM) amounted to 0.738; with Temozolomide + OSI-027 (first compound 0.6325 µM) it was 0.78; with Temozolomide + OSI-027 (first compound 2 µM) it was 0.843; with Temozolomide + OSI-027 (first compound 6.325 µM), 0.749; with Temozolomide + OSI-027 (first compound 20 µM), 0.269; with AZD5582 + Luminespib (first compound 0.001581 µM), 0.628. In addition, the relative viability stood at 0.67 with AZD5582 + Luminespib (first compound 0.005 µM); 0.638 with AZD5582 + Luminespib (first compound 0.01581 µM); 0.557 with AZD5582 + Luminespib (first compound 0.05 µM); 0.824 in the assay with AZD5582 + Pemetrexed (first compound 0.001581 µM); 0.957 in the assay with AZD5582 + Pemetrexed (first compound 0.005 µM); 1.03 with AZD5582 + Pemetrexed (first compound 0.01581 µM). Besides, the relative viability with AZD5582 + Pemetrexed (first compound 0.05 µM) was determined as 0.519; with AZD5582 + Crizotinib (first compound 0.001581 µM) it was 0.862; with AZD5582 + Crizotinib (first compound 0.005 µM) it was 0.882; with AZD5582 + Crizotinib (first compound 0.01581 µM) it was 0.97; in the assay with AZD5582 + Crizotinib (first compound 0.05 µM), 0.314.
Take NCI-H1666: the relative viability in the assay with Temozolomide + OSI-027 (first compound 0.2 µM) was found to be 0.81; with Temozolomide + OSI-027 (first compound 0.6325 µM) it was 0.822; in the assay with Temozolomide + OSI-027 (first compound 2 µM), 0.789; with Temozolomide + OSI-027 (first compound 6.325 µM), 0.65; with Temozolomide + OSI-027 (first compound 20 µM), 0.672; in the assay with AZD5582 + Luminespib (first compound 0.001581 µM) it was 0.888. The relative viability with AZD5582 + Luminespib (first compound 0.005 µM) worked out at 0.931; in the assay with AZD5582 + Luminespib (first compound 0.01581 µM) it was 1.01; with AZD5582 + Luminespib (first compound 0.05 µM), 0.946; with AZD5582 + Pemetrexed (first compound 0.001581 µM), 0.788; with AZD5582 + Pemetrexed (first compound 0.005 µM), 0.879; with AZD5582 + Pemetrexed (first compound 0.01581 µM), 0.794. Besides, the relative viability was determined as 0.71 in the assay with AZD5582 + Pemetrexed (first compound 0.05 µM); 0.662 with AZD5582 + Crizotinib (first compound 0.001581 µM); 0.817 with AZD5582 + Crizotinib (first compound 0.005 µM); 1.01 with AZD5582 + Crizotinib (first compound 0.01581 µM); 0.808 in the assay with AZD5582 + Crizotinib (first compound 0.05 µM).
Turning to COR-L 105, the relative viability turned out to be 0.476 with Temozolomide + OSI-027 (first compound 0.2 µM); 0.781 in the assay with Temozolomide + OSI-027 (first compound 0.6325 µM); 0.735 with Temozolomide + OSI-027 (first compound 2 µM); 0.742 in the assay with Temozolomide + OSI-027 (first compound 6.325 µM); 0.303 with Temozolomide + OSI-027 (first compound 20 µM); 0.619 in the assay with AZD5582 + Luminespib (first compound 0.001581 µM). Besides, the relative viability is 0.728 in the assay with AZD5582 + Luminespib (first compound 0.005 µM); 0.837 in the assay with AZD5582 + Luminespib (first compound 0.01581 µM); 0.862 with AZD5582 + Luminespib (first compound 0.05 µM); 1.09 with AZD5582 + Pemetrexed (first compound 0.001581 µM); 1.11 in the assay with AZD5582 + Pemetrexed (first compound 0.005 µM); 1 with AZD5582 + Pemetrexed (first compound 0.01581 µM). Further, the relative viability with AZD5582 + Pemetrexed (first compound 0.05 µM) came to 1.25; with AZD5582 + Crizotinib (first compound 0.001581 µM), 0.667; with AZD5582 + Crizotinib (first compound 0.005 µM), 0.82; in the assay with AZD5582 + Crizotinib (first compound 0.01581 µM) it was 0.684; with AZD5582 + Crizotinib (first compound 0.05 µM), 0.817.
